The text below walks through data of BindingDB's records for doi:10.7270/Q2639NCQ (The Scripps Research Institute Molecular Screening Center, 2013).

The structures appear in SMILES notation.

The experiment concerns the target T1, Mitochondrial peptide methionine sulfoxide reductase (Bos taurus, UniProt P54149).
T1 sequence (P54149 whole entry): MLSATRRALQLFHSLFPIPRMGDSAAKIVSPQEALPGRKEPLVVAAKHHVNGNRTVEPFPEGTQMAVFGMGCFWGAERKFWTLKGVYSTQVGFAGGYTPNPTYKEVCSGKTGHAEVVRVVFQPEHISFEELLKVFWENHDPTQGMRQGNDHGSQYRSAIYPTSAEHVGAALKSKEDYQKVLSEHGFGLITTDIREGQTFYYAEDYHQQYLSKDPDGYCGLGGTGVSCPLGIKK
Usually IC50 stands for the concentration that inhibits the measured activity by half. A lower IC50 goes with greater potency in that assay. `COC(=O)c1ccc(S(=O)(=O)N2CCCN(Cc3cccc(Br)c3F)CC2)n1C` [5-[[4-[(3-bromo-2-fluorophenyl)methyl]-1,4-diazepan-1-yl]sulfonyl]-1-methyl-2-pyrrolecarboxylic acid methyl ester]: the IC50 was > 155 µM. `CC(Nc1ccc([N+](=O)[O-])cc1[N+](=O)[O-])c1ccccc1` (centres undefined): the IC50 was > 155 µM.

For `CC(=O)COc1ccc2oc(=O)cc(-c3cc4ccccc4o3)c2c1` [SMR000641655], the IC50 is > 155 µM. Take `CCc1nccn1C(=O)c1cnn2c(C(F)F)cc(-c3ccc(C)cc3)nc12` [7-(difluoromethyl)-3-[(2-ethyl-1H-imidazol-1-yl)carbonyl]-5-(4-methylphenyl)pyrazolo[1,5-a]pyrimidine]: the IC50 was > 155 µM.

With `NC(=O)c1ccc(Nc2ccc3c(c2)CCC3)c([N+](=O)[O-])c1` [4-(2,3-dihydro-1H-inden-5-ylamino)-3-nitro-benzamide], the IC50 was > 155 µM.

On to `COc1ccc2[nH]c(C(=O)N/N=C/c3ccc(OC)c(O)c3)cc2c1` [MLS001214387], for which the IC50 is > 155 µM. Consider `N#CC1C(=N)Oc2c(O)cc3ccccc3c2C1c1ccsc1` (centres undefined) [3-amino-5-hydroxy-1-(3-thiophenyl)-1H-benzo[f][1]benzopyran-2-carbonitrile], for which the IC50 is > 155 µM.

Turning to `N#CCCSc1nc(N2CCOCC2)c2c(c1C#N)CCCC2` [3-(2-cyanoethylthio)-1-(4-morpholinyl)-5,6,7,8-tetrahydroisoquinoline-4-carbonitrile], the IC50 was > 155 µM.

Take `Cc1ccccc1Nc1c(N)c(=O)oc2ccccc12` [MLS000563389]: the IC50 was > 155 µM. Compound `CCOC(=O)C(=CC(C#N)C(=O)OCC)C(=N)N1CCN(c2ccc(OC)cc2)CC1` (centres undefined) registered a 50% inhibitory concentration (IC50) of 139 µM. With `O=C1C(=O)N(CCCn2ccnc2)C(c2cccc(Br)c2)C1C(=O)c1ccco1` (centres undefined) [2-(3-bromophenyl)-3-[2-furanyl(oxo)methyl]-4-hydroxy-1-[3-(1-imidazolyl)propyl]-2H-pyrrol-5-one], the IC50 was > 155 µM. With `COc1ccc(-c2cc(=O)oc3c(C)c(OC(C)C(C)=O)ccc23)cc1` (centres undefined) [4-(4-methoxyphenyl)-8-methyl-7-(3-oxobutan-2-yloxy)-1-benzopyran-2-one], the IC50 was > 155 µM. `N#Cc1c(-n2cccc2C=O)sc2c1CCCC2` [2-(2-methanoylpyrrol-1-yl)-4,5,6,7-tetrahydro-1-benzothiophene-3-carbonitrile]: the IC50 was > 155 µM.

Consider `Cc1ccc(-c2csc3nc(C)n(-n4c(C)ccc4C)c(=O)c23)o1` [SMR000061692], for which the IC50 is > 155 µM. With `N#Cc1c(-n2cccc2CN=O)sc2c1CCCC2` [SMR000009830] the figure was > 155 µM; with `COc1ccc(CNC(=O)c2c(C)oc3c2C(=O)c2ccccc2C3=O)cc1`, > 155 µM.

Regarding `CSc1nc2sc3c(c2c2nnnn12)CCCC3` [MLS000071273], the IC50 is > 155 µM.

As to `Cc1ccc(C)c(NC(=O)/C(C#N)=C/c2ccc[nH]2)c1` [SMR000678612], the IC50 is > 155 µM. For `O=[N+]([O-])c1cc([N+](=O)[O-])c(N2CCOCC2)cc1NCc1ccccc1` [5-morpholin-4-yl-2,4-dinitro-N-(phenylmethyl)aniline], the IC50 was > 155 µM. With `FC(F)(F)c1ccc(/N=C/c2sc(N3CCOCC3)nc2-c2ccccc2)cc1` [SMR000260329], the IC50 was > 155 µM. Take `CCCCCc1c(-c2cccc(OC)c2)ncn1CCc1ccccc1OC` [4-(3-methoxyphenyl)-1-[2-(2-methoxyphenyl)ethyl]-5-pentyl-imidazole;2,2,2-tris(fluoranyl)ethanoic acid]: the IC50 was > 155 µM. With `O=C1C(Cl)=C(Nc2ccc3cn[nH]c3c2)C(=O)c2ccccc21` the figure was > 155 µM.

In the case of `CC(Nc1cc(N2CCOCC2)ccc1[N+](=O)[O-])c1ccccc1` (centres undefined) [MLS000573605], the IC50 is > 155 µM. For the compound `CCSc1nc(N2CCOCC2)c2c(c1C#N)CCCC2` [3-(ethylthio)-1-(4-morpholinyl)-5,6,7,8-tetrahydroisoquinoline-4-carbonitrile], the IC50 is > 155 µM. For `Cc1ccccc1-c1nc(C#N)c(N2CCCCC2)o1` [MLS001165046], the IC50 is > 155 µM. With `COc1cccc(/C=N/n2c(CO)nc3ccccc32)c1OC` [[1-[(E)-(2,3-dimethoxyphenyl)methylideneamino]-2-benzimidazolyl]methanol] the figure was > 155 µM. Compound `O=C(O)Cc1sc(N=NC=CCc2ccccc2)nc1O` [SMR000236709] displayed an IC50 of 118 µM. `c1ccc2c(c1)CCCN2c1nc2ccccc2n2cnnc12` [4-(3,4-dihydro-2H-quinolin-1-yl)-[1,2,4]triazolo[4,3-a]quinoxaline]: the IC50 was > 155 µM. Regarding `CC(C)(C)c1cc([N+](=O)[O-])cc(C(C)(C)C)c1O` [MLS000755910], the IC50 is > 155 µM. Regarding `COC(=O)c1ccccc1NC(=S)NC(=O)C1CC1` [methyl 2-({[(cyclopropylcarbonyl)amino]carbothioyl}amino)benzoate], the IC50 was > 155 µM. With `O=C(O)c1cccc(N=NCc2sc(N3CCOCC3)nc2-c2ccccc2)c1` [3-[(2E)-2-[(2-morpholin-4-yl-4-phenyl-1,3-thiazol-5-yl)methylidene]hydrazinyl]benzoic acid], the half-inhibitory concentration (IC50) was > 155 µM. Take `CC(=N)C(C#N)C(=O)CSc1nn(-c2ccc(Cl)cc2)c(=S)s1` (centres undefined): the IC50 is > 155 µM. Consider `NC(=O)COc1ccc2oc(=O)cc(-c3cc4ccccc4o3)c2c1` [SMR000641652], for which the IC50 was > 155 µM. `COc1cccc2cc(-c3cc(=O)oc4ccc(O)cc34)oc12` [SMR000543646]: the IC50 was > 155 µM.

As to `COc1cccc(Nc2nc3cc(OC)ccc3cc2C#N)c1` [7-methoxy-2-(3-methoxyanilino)-3-quinolinecarbonitrile], the IC50 was > 155 µM. For the compound `COc1ccccc1-c1cc(C(F)(F)F)nc(N2CCOCC2)n1`, the IC50 is > 155 µM. Take `O=C(c1ccco1)c1cc2c(ccc3ccccc32)oc1=O` [2-(furan-2-ylcarbonyl)benzo[f]chromen-3-one]: the IC50 was > 155 µM. Consider `COc1cccc(Nc2nc3ccccc3n3nnnc23)c1` [N-(3-methoxyphenyl)-[1,2,3,4]tetrazolo[1,5-a]quinoxalin-4-amine], for which the IC50 was > 155 µM. As to `Cc1cccc(Nc2oc3cc(=O)ccc-3cc2C(N)=O)c1` [(2Z)-7-hydroxy-2-[(3-methylphenyl)imino]-2H-chromene-3-carboxamide], the IC50 was > 155 µM. For the compound `COc1cccc(C2=Nc3nnnn3C(c3cccc(OC)c3OC)C2)c1` (centres undefined), the IC50 is > 155 µM. Consider `COC(=O)N1[C@H](C)C=C[C@]1(Cc1ccccc1)C(=O)NCCCNc1ncc(C(F)(F)F)cc1Cl` [(2R,5R)-5-[[3-[[3-chloro-5-(trifluoromethyl)-2-pyridinyl]amino]propylamino]-oxomethyl]-2-methyl-5-(phenylmethyl)-2H-pyrrole-1-carboxylic acid methyl ester], for which the IC50 is > 155 µM.

Regarding `Cc1ccc(S(=O)(=O)NCCNc2ccc([N+](=O)[O-])cc2C(F)(F)F)cc1` [4-methyl-N-(2-{[4-nitro-2-(trifluoromethyl)phenyl]amino}ethyl)benzenesulfonamide], the IC50 is > 155 µM. As for `Cc1ccc(C)n1-n1c(C)nc2scc(-c3cccs3)c2c1=O` [3-(2,5-dimethyl-1-pyrrolyl)-2-methyl-5-thiophen-2-yl-4-thieno[2,3-d]pyrimidinone], the IC50 is > 155 µM. Take `Cc1ccc(Nc2ccc(C(F)(F)F)cc2[N+](=O)[O-])cc1`: the IC50 was > 155 µM. On to `O=C(N/N=C/c1ccc2c(c1)OCO2)c1ccc(Br)o1` [SMR000185016], for which the IC50 is > 155 µM.

For the compound `CCOc1cc(S(=O)(=O)NC2CC2)c(OCC)cc1-n1cnnn1` [SMR000123810], the IC50 is > 155 µM. In the case of `CC(=O)N1N=C(c2ccncc2)OC1(Cc1ccccc1)Cc1ccccc1`, the IC50 was > 155 µM. Under `CCc1noc(C)c1C(=O)Nc1nc(-c2cc(C)ccc2C)c(C)s1` [MLS000324834] stands > 155 µM. In turn, `COc1ccc(C=NNC(=O)C(C=Nc2nccc(C)n2)NC(=O)c2ccccc2)cc1` (centres undefined) [N-[(E)-3-[(2Z)-2-[(4-methoxyphenyl)methylidene]hydrazinyl]-1-[(4-methylpyrimidin-2-yl)amino]-3-oxidanylidene-prop-1-en-2-yl]benzamide] yielded an IC50 of 149 µM.

As for `O=Cc1c(-c2ccccc2)nc2ccccn12` [2-phenyl-3-imidazo[1,2-a]pyridinecarboxaldehyde], the IC50 was > 155 µM.

Turning to `Cc1ccc(Nc2ccc(C(N)=O)cc2[N+](=O)[O-])cc1C` [MLS000334544], the IC50 is > 155 µM.

Regarding `Cc1nonc1C1CCCN1Cc1c[nH]nc1-c1ccc(-c2ccccc2)cc1` (centres undefined) [SMR000316348], the concentration for half-maximal inhibition (IC50) was > 155 µM.

For the compound `COC(=O)/C(=C1/Oc2ccc(C)cc2S1)C(F)(F)F` [methyl (2E)-3,3,3-trifluoro-2-(5-methyl-1,3-benzoxathiol-2-ylidene)propanoate], the IC50 is > 155 µM.

As for `COc1ccc(/C=N/N2C(=O)C3C4C=CC(C4)C3C2=O)cc1[N+](=O)[O-]` (centres undefined) [SMR000283338], the IC50 was > 155 µM. Turning to `O=c1cnn(-c2ccccc2)c(-c2ccccc2)c1` [SMR000060054], the IC50 was > 155 µM. Under `Cc1ccnc(N2C(=O)c3cccc4c([N+](=O)[O-])ccc(c34)C2=O)c1` [2-(4-Methyl-pyridin-2-yl)-6-nitro-benzo[de]isoquinoline-1,3-dione] stands > 155 µM.

For `O=[N+]([O-])c1cnc(Nc2ccc(Cl)cn2)c([N+](=O)[O-])c1`, the IC50 is > 155 µM.

On to `Nc1ccccc1Nc1ccc([N+](=O)[O-])cc1[N+](=O)[O-]` [N~1~-(2,4-dinitrophenyl)-1,2-benzenediamine], for which the IC50 was > 155 µM. As for `CN(c1ccccc1)S(=O)(=O)c1ccc2[nH]c(O)nc2c1` [N-methyl-2-oxidanylidene-N-phenyl-1,3-dihydrobenzimidazole-5-sulfonamide], the IC50 is > 155 µM.
